Measured values: the supplement of paper PMC11208160

Assay: recombinant barcode read abundance after kanamycin selection (control-corrected) (log10(CPM+1)); higher = more efficient recombination; sequences stand for … in AGTGCAGAGAAAATCGGCCAGTTTTCTCTGCCTGCAGTCCGCATGCCGT…ATTTATGCAGCGGACTGCCTTTCTCCCAAAGTGATAAACCGGACAGTATCATGGACCGGTTTTCCCGGTAATCCGTATTTGCAAGGTTGGTTTCACT; site = the 11-nt target
In short: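 A vector carrying a T7-inducible recombinase and the last 73 bp of the bridge RNA received, by Gibson cloning, oligos encoding a promoter, target, barcode and the first 104 bridge RNA bases under J23119. The pooled constructs entered E. coli together with a donor plasmid by electroporation. Selection used chloramphenicol/ampicillin/kanamycin with 0.1 mM IPTG, with chloramphenicol/ampicillin LB agar as the control, each in two replicates. Recombination efficiency is the averaged, control-corrected counts-per-million of barcodes at recombinant junctions, reported as log10(CPM+1).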

Sequence	recombinant barcode read abundance (log10)
GAGTCCACTTGGGTTCTAACCTGTTGCGTAC [GAGTCCACTAC_LTGcore_CT_RTGcore_GT] (site GAGTCCACTAC) (LTG core: CT, RTG core: GT)	0.0332
GAGTCCACTTGGGTTCTAACCTGTTGCGTCA [GAGTCCACTAC_LTGcore_CT_RTGcore_TG] (site GAGTCCACTAC) (LTG core: CT, RTG core: TG)	0.0372
GAGTCCACTTGGGTTCTAACCTGTTGCGTGC [GAGTCCACTAC_LTGcore_CT_RTGcore_GC] (site GAGTCCACTAC) (LTG core: CT, RTG core: GC)	0.0181
GAGTCCACTTGGGTTCTAACCTGTTGCGTGG [GAGTCCACTAC_LTGcore_CT_RTGcore_CC] (site GAGTCCACTAC) (LTG core: CT, RTG core: CC)	0.0805
GAGTCCACTTGGGTTCTAACCTGTTGCGTTA [GAGTCCACTAC_LTGcore_CT_RTGcore_TA] (site GAGTCCACTAC) (LTG core: CT, RTG core: TA)	0.102
GAGTCCACTTGGGTTCTAACCTGTTGCGTTC [GAGTCCACTAC_LTGcore_CT_RTGcore_GA] (site GAGTCCACTAC) (LTG core: CT, RTG core: GA)	0.671
GAGTCCAGATGGGTTCTAACCTGTTGCGTTC [GAGTCCACTAC_LTGcore_GA_RTGcore_GA] (site GAGTCCACTAC) (LTG core: GA, RTG core: GA)	0.157
GAGTCCAGTTGGGTTCTAACCTGTTGCGTAC [GAGTCCACTAC_LTGcore_GT_RTGcore_GT] (site GAGTCCACTAC) (LTG core: GT, RTG core: GT)	0.0422
GAGTCCATATGGGTTCTAACCTGTTGCGTAG [GAGTCCACTAC_LTGcore_TA_RTGcore_CT] (site GAGTCCACTAC) (LTG core: TA, RTG core: CT)	0.0591
GAGTCCATGTGGGTTCTAACCTGTTGCGTAG [GAGTCCACTAC_LTGcore_TG_RTGcore_CT] (site GAGTCCACTAC) (LTG core: TG, RTG core: CT)	0.0936
GAGTCCTAGTGGGTTCTAACCTGTTGCCTCT [GAGTCCTCTAG_LTGcore_AG_RTGcore_AG] (site GAGTCCTCTAG) (LTG core: AG, RTG core: AG)	0.0613
GAGTCCTCTTGGGTTCTAACCTGTTGCCTAC [GAGTCCTCTAG_LTGcore_CT_RTGcore_GT] (site GAGTCCTCTAG) (LTG core: CT, RTG core: GT)	1.02
GAGTCCTCTTGGGTTCTAACCTGTTGCCTCT [GAGTCCTCTAG_LTGcore_CT_RTGcore_AG] (site GAGTCCTCTAG) (LTG core: CT, RTG core: AG)	1.65
GAGTCCTCTTGGGTTCTAACCTGTTGCCTGG [GAGTCCTCTAG_LTGcore_CT_RTGcore_CC] (site GAGTCCTCTAG) (LTG core: CT, RTG core: CC)	1.39
GAGTCCTCTTGGGTTCTAACCTGTTGCCTTG [GAGTCCTCTAG_LTGcore_CT_RTGcore_CA] (site GAGTCCTCTAG) (LTG core: CT, RTG core: CA)	0.753
GAGTCCTGATGGGTTCTAACCTGTTGCCTAG [GAGTCCTCTAG_LTGcore_GA_RTGcore_CT] (site GAGTCCTCTAG) (LTG core: GA, RTG core: CT)	0.62

Sequence	recombinant barcode read abundance (log10)
GAGTCCTGATGGGTTCTAACCTGTTGCCTTC [GAGTCCTCTAG_LTGcore_GA_RTGcore_GA] (site GAGTCCTCTAG) (LTG core: GA, RTG core: GA)	0.149
GAGTCCTGGTGGGTTCTAACCTGTTGCCTCC [GAGTCCTCTAG_LTGcore_GG_RTGcore_GG] (site GAGTCCTCTAG) (LTG core: GG, RTG core: GG)	0.0289
GAGTCCTTTTGGGTTCTAACCTGTTGCCTAA [GAGTCCTCTAG_LTGcore_TT_RTGcore_TT] (site GAGTCCTCTAG) (LTG core: TT, RTG core: TT)	0.219
GAGTCCTTTTGGGTTCTAACCTGTTGCCTAG [GAGTCCTCTAG_LTGcore_TT_RTGcore_CT] (site GAGTCCTCTAG) (LTG core: TT, RTG core: CT)	0.153
GCGCGACAGTGGGTTCTAACCTGTTGCTTAG [GCGCGACCTAA_LTGcore_AG_RTGcore_CT] (site GCGCGACCTAA) (LTG core: AG, RTG core: CT)	0.642
GCGCGACCTTGGGTTCTAACCTGTTGCTTAC [GCGCGACCTAA_LTGcore_CT_RTGcore_GT] (site GCGCGACCTAA) (LTG core: CT, RTG core: GT)	0.23
GCGCGACCTTGGGTTCTAACCTGTTGCTTCC [GCGCGACCTAA_LTGcore_CT_RTGcore_GG] (site GCGCGACCTAA) (LTG core: CT, RTG core: GG)	0.0108
GCGCGACCTTGGGTTCTAACCTGTTGCTTCT [GCGCGACCTAA_LTGcore_CT_RTGcore_AG] (site GCGCGACCTAA) (LTG core: CT, RTG core: AG)	0.345
GCGCGACCTTGGGTTCTAACCTGTTGCTTGA [GCGCGACCTAA_LTGcore_CT_RTGcore_TC] (site GCGCGACCTAA) (LTG core: CT, RTG core: TC)	0.0329
GCGCGACGCTGGGTTCTAACCTGTTGCTTGC [GCGCGACCTAA_LTGcore_GC_RTGcore_GC] (site GCGCGACCTAA) (LTG core: GC, RTG core: GC)	0.0645
GCGCGACGTTGGGTTCTAACCTGTTGCTTAC [GCGCGACCTAA_LTGcore_GT_RTGcore_GT] (site GCGCGACCTAA) (LTG core: GT, RTG core: GT)	0.0144
GCGCGACTATGGGTTCTAACCTGTTGCTTAG [GCGCGACCTAA_LTGcore_TA_RTGcore_CT] (site GCGCGACCTAA) (LTG core: TA, RTG core: CT)	0.038
GCGGGACACTGGGTTCTAACCTGTTGCCTGT [GCGGGACCTAG_LTGcore_AC_RTGcore_AC] (site GCGGGACCTAG) (LTG core: AC, RTG core: AC)	0
GCGGGACAGTGGGTTCTAACCTGTTGCCTCT [GCGGGACCTAG_LTGcore_AG_RTGcore_AG] (site GCGGGACCTAG) (LTG core: AG, RTG core: AG)	0
GCGGGACCCTGGGTTCTAACCTGTTGCCTGG [GCGGGACCTAG_LTGcore_CC_RTGcore_CC] (site GCGGGACCTAG) (LTG core: CC, RTG core: CC)	1.52
GCGGGACGCTGGGTTCTAACCTGTTGCCTGC [GCGGGACCTAG_LTGcore_GC_RTGcore_GC] (site GCGGGACCTAG) (LTG core: GC, RTG core: GC)	0.0844
